Data on seven substances can be found in patent publication EP0292291B1, “Linear and cyclic analogs of alpha-msh fragments with extraordinary potency” (UNIVERSITY PATENTS, INC., priority 1987, dated 1988).

Like-named read-outs stand apart in the source and are kept apart here.

The test system of assay [1] is Lizard (Anolis carolinensis) Skin. The conditions noted are these: relative to alpha-MSH = 1.0; earlier studies; cited from earlier work.
In another assay the test system is Frog (Rana pipiens) Skin. The conditions noted are these: earlier studies, cited from earlier work; for Relative Potency Frog: relative to alpha-MSH = 1.0.
In assay [2] the test system is Lizard (Anolis carolinensis) Skin. The assay is classed as cell-based. The settings on record: for Biological Potency Lizard: relative to alpha-MSH = 1.0. From the text:
Based upon the structural relationship of alpha-MSH (and its analogues and fragments) to its biological potency, using in vitro a frog skin bioassay system, the active site of alpha-MSH appears to be the common active core sequence suitably modified Ac-Met-Glu-His-Phe-Arg-Trp-Gly-NH₂. This fragment (Alpha-MSH₄₋₁₀) has been synthesized and tested for its melanocyte stimulating activity in frog skin and shown to be a weak agonist when compared to the native hormone. The amino acid exchanges in position 5(Glu) and 10(Gly) have not, previous to the making of the present invention, been investigated. […] The following table summarizes some of these studies.
The biological potencies of alpha-MSH, the linear, and the cyclic analogues were determined by their ability to stimulate melanosome dispersion in vitro in the frog and lizard bioassays. These in vitro assays provide clear cut dose response curves (between 2.5 x 10⁻¹¹ and 4 x 10⁻¹⁰ M) and can detect minimal concentration of alpha-MSH of about 10⁻¹¹ M. The assays are based upon the centrifugal dispersion of melanosomes (melanin granules) within the dendritic processes of integumental dermal melanophores leading to darkening of the skin. All the test solutions were prepared via serial dilutions from a stock solution (10⁻⁴ M). The frogs (Rans pipiens) used in these evaluations were obtained from Kons Scientific, Germantown, WI, and the lizards (Anolis carolinensis) were from the Snake Farm, La Place, LA.

With Ac-[Nle⁴,D-Phe⁷]-alpha-MSH₄₋₁₁NH₂, the “Relative Potency Lizard” value in assay [1] is listed as 8.0. Moreover, in the assay on Frog (Rana pipiens) Skin, the “Relative Potency Frog” value is recorded as 0.16.
As to “Ac-Met-Glu-His-Phe-Arg-Trp-Gly-NH₂ [Ac-alpha -MSH₄₋₁₀NH₂]”, in assay [1], the “Relative Potency Lizard” value is given as 0.004. Further, in the assay on Frog (Rana pipiens) Skin, the “Relative Potency Frog” value is listed as 0.0003. The “melanocyte stimulating activity in frog skin” value with Frog (Rana pipiens) Skin (result in words, compared to the native hormone) is “weak agonist”.
For the substance Ac-[Nle⁴]-alpha-MSH₄₋₁₁NH₂, the “Relative Potency Lizard” value in assay [1] was 1.0. The “Relative Potency Frog” value in the assay with Frog (Rana pipiens) Skin was 0.002.
For the substance Ac-[Nle⁴]-alpha-MSH₄₋₁₀NH₂, the “Relative Potency Lizard” value in assay [1] is listed as 0.06. The “Relative Potency Frog” value in the assay on Frog (Rana pipiens) Skin is 0.002.
Consider alpha-melanotropin [alpha-MSH], for which, in assay [1], the “Relative Potency Lizard” value is 1.0. Moreover, the “Residual Activity Lizard” value in assay [2] (cyclic analogues, p = prolonged action) is “p(-)”; in assay [2] (linear analogues, P = prolonged action), “P(-)”. For the same substance, the “Biological Potency Lizard” value in assay [2] (cyclic analogues) and in assay [2] (linear analogues) was 1.0 each time. Also, in the assay on Frog (Rana pipiens) Skin, the “Relative Potency Frog” value is reported as 1.0.
Ac-[Nle⁴,D-Phe⁷]-alpha-MSH₄₋₁₀NH₂: the “Relative Potency Lizard” value in assay [1] was 10.0. Moreover, the “Relative Potency Frog” value in the assay with Frog (Rana pipiens) Skin is given as 0.02.
Take Ac-[Nle⁴,D-Phe⁷]-alpha -MSH₁₋₁₃NH₂: the “Relative Potency Lizard” value in assay [1] was 5.0. The “Relative Potency Frog” value in the assay on Frog (Rana pipiens) Skin is given as 60.0.
